The source of these data is US11986471B2, “Compounds and methods of use” (Tango Therapeutics, Inc., priority 2018, dated 2024).

Holding throughout (type): biochemical
For assay [1], the target named is T1, PRMT5 (Homo sapiens, UniProt O14744).
T1 construct: purchased Viva (custom protein)
In words: PRMT5 IC50 assay in the presence of MTA as cofactor. The following applies: for IC50: PRMT5, MTA as cofactor. In outline:
(§1)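 Potency against PRMT5 is compared across cofactor states, where IC50 equals Ki×1.5 with SAM present and Ki×13.5 with MTA present.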

Assay [2] has as its target T1, PRMT5. In words: PRMT5 IC50 assay in the presence of SAM as cofactor. In a few lines: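 IC50 values were measured against human PRMT5 with SAM, with MTA, or with no cofactor. Ki was derived from IC50 as Ki=IC50/1.5 with SAM and Ki=IC50/13.5 with MTA, and the Ki(SAM)/Ki(MTA) ratio was then taken.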
Assay [3] has as its target T1, PRMT5. In words: PRMT5 IC50 assay with no cofactor. In a few lines:
as §1

The mark [4] stands for this setting: ratio between the Ki in the presence of SAM and the Ki in the presence of MTA.
Setting [5] is: ratio between Ki in the presence of SAM and Ki in the presence of MTA.

The IC50 is the concentration needed to halve the response being measured.

The structures appear in SMILES notation. Where only a bound is given, the exact number is not on record here.

T1 sequence (O14744 whole entry): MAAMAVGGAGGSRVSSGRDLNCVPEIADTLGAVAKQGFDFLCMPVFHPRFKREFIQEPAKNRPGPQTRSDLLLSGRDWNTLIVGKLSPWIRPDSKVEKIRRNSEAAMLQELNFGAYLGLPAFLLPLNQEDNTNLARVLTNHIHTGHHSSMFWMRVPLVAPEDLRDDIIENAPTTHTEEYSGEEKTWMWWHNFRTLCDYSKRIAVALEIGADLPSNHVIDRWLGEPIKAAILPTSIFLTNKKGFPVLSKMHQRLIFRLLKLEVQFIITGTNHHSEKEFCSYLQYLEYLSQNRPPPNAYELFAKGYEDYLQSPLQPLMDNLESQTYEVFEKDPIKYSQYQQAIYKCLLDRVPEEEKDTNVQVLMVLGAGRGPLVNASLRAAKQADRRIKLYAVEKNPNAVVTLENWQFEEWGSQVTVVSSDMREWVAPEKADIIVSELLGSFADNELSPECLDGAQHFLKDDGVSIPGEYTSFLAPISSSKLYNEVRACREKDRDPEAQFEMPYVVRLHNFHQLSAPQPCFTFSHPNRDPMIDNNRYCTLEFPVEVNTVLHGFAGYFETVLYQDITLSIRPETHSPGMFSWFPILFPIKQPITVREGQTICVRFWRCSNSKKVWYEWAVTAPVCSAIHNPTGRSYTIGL
T1 sequence (Q9BQA1 whole entry partner): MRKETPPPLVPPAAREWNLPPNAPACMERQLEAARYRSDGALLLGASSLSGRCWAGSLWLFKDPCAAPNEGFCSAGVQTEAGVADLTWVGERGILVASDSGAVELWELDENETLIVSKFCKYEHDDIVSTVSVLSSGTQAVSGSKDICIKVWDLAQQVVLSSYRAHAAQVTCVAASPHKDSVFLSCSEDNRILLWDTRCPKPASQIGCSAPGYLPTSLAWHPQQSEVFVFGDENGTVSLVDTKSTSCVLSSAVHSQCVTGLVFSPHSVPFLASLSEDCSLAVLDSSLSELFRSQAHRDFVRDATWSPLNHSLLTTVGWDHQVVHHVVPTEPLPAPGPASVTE

On to `CC(=O)N1CCC(Nc2cccc(C(=O)NC[C@H](O)CN3CCc4cc(OCc5cnco5)ccc4C3)c2)C1` (stereo partly drawn) [Compound 558, 3-((1-acetylpyrrolidin-3-yl)amino)-N—((S)-2-hydroxy-3-(6-(oxazol-5-ylmethoxy)-3,4-dihydroisoquinolin-2(1H)-yl)propyl)benzamide], for which the IC50 in assay [1] is 500 to 5000 nM; in assay [2] it was 500 to 5000 nM; in assay [3] it was at least 5000 nM. For the same compound, the “SAM/MTA Ratio” value in assay [1] (setting [4]) was “A (a Ki ratio greater than or equal to 10 fold between the Ki in the presence of SAM and the Ki in the presence of MTA)”.
Take `Cc1c(OCc2cnco2)ccc2c1CCN(C[C@@H](O)CNC(=O)c1ccnc(N[C@H]3C[C@H](O)C3)c1)C2` [Compound 552, N—((S)-2-hydroxy-3-(5-methyl-6-(oxazol-5-ylmethoxy)-3,4-dihydroisoquinolin-2(1H)-yl)propyl)-2-(((1r,3S)-3-hydroxycyclobutyl)amino)isonicotinamide]: the IC50 was 500 to 5000 nM in assay [1], 500 to 5000 nM in assay [2] and at least 5000 nM in assay [3]. Moreover, in assay [1] (setting [4]), the “SAM/MTA Ratio” value is “A (a Ki ratio greater than or equal to 10 fold between the Ki in the presence of SAM and the Ki in the presence of MTA)”.
Turning to `CC(=O)N1CCC(Nc2cc(C(=O)NC[C@H](O)CN3CCc4cc(OCc5ocnc5C)ccc4C3)cc(C(C)C)n2)CC1` [Compound 646, (S)-2-((1-acetylpiperidin-4-yl)amino)-N-(2-hydroxy-3-(6-((4-methyloxazol-5-yl)methoxy)-3,4-dihydroisoquinolin-2(1H)-yl)propyl)-6-isopropylisonicotinamide], the IC50 was below 50 nM in assay [1], 50 to 500 nM in assay [2] and 500 to 5000 nM in assay [3] (read-out: No Co-factor IC50). In assay [1] (setting [5]), the “SAM/MTA Ratio” value was “A (a Ki ratio greater than or equal to 10 fold between the Ki in the presence of SAM and the Ki in the presence of MTA)”.
For `CC(=O)N1CCC(Nc2cc(C(=O)NC[C@H](O)CN3CCc4c(ccc(OCc5cnnn5C)c4C)C3)ncn2)CC1` [Compound 276, (S)-6-((1-acetylpiperidin-4-yl)amino)-N-(2-hydroxy-3-[5-methyl-6-((1-methyl-1H-1,2,3-triazol-5-yl)methoxy)-3N-dihydroisoquinolin-2(1H)-yl)propyl)pyrimidine-4-carboxamide], the IC50 in assay [1] is 500 to 5000 nM; in assay [2] it was 500 to 5000 nM; in assay [3] (read-out: No Co-factor IC50), at least 5000 nM. For the same compound, the “SAM/MTA Ratio” value in assay [1] (setting [5]) was “A (a Ki ratio greater than or equal to 10 fold between the Ki in the presence of SAM and the Ki in the presence of MTA)”.
With `CC(=O)N1CCC(Nc2cccc(C(=O)NC[C@H](O)CN3CCc4c(ccc(OCc5cnco5)c4C)C3)c2)C1` (stereo partly drawn) [Compound 525, 3-[(1-acetylpyrrolidin-3-yl)amino]-N-[(2S)-2-hydroxy-3-{5-methyl-6-[(1,3-oxazol-5-yl)methoxy]-1,2,3,4-tetrahydroisoquinolin-2-yl}propyl]benzamide], the IC50 was 500 to 5000 nM in assay [1], 500 to 5000 nM in assay [2] and at least 5000 nM in assay [3]. Moreover, the “SAM/MTA Ratio” value in assay [1] (setting [4]) is “A (a Ki ratio greater than or equal to 10 fold between the Ki in the presence of SAM and the Ki in the presence of MTA)”.
As for `Cc1ncoc1COc1ccc2c(c1C)CCN(C[C@@H](O)CNC(=O)c1cc(NC3CCC3)nc(N3CCCCC3)c1)C2` [Compound 557, 2-(cyclobutylamino)-N-[(2S)-2-hydroxy-3-{5-methyl-6-[(4-methyl-1,3-oxazol-5-yl)methoxy]-1,2,3,4-tetrahydroisoquinolin-2-yl}propyl]-6-(piperidin-1-yl)pyridine-4-carboxamide], the IC50 is 50 to 500 nM in assay [1], 500 to 5000 nM in assay [2] and at least 5000 nM in assay [3]. The “SAM/MTA Ratio” value in assay [1] (setting [4]) is “A (a Ki ratio greater than or equal to 10 fold between the Ki in the presence of SAM and the Ki in the presence of MTA)”.
Turning to `CC(=O)N1CC(Nc2cc(C(=O)NC[C@H](O)CN3CCc4cc(OCc5cnco5)ccc4C3)ncn2)C1` [Compound 562, (S)-6-((1-acetylazetidin-3-yl)amino)-N-(2-hydroxy-3-(6-(oxazol-5-ylmethoxy)-3A-dihydroisoquinolin-2(1H)-yl)propyl)pyrimidine-4-carboxamide], the IC50 in assay [1] was 50 to 500 nM; in assay [2] it was 500 to 5000 nM; in assay [3] it was at least 5000 nM. Also, the “SAM/MTA Ratio” value in assay [1] (setting [4]) was “A (a Ki ratio greater than or equal to 10 fold between the Ki in the presence of SAM and the Ki in the presence of MTA)”.
With `CC(=O)N1CC2CC1CC2Nc1cc(C(=O)NC[C@H](O)CN2CCc3cc(OCc4ocnc4C)ccc3C2)ncn1` (stereo partly drawn) [Compound 632, 6-({2-acetyl-2-azabicyclo[2.2.1]heptan-5-yl}amino)-N-[(2S)-2-hydroxy-3-{6-[(4-methyl-1,3-oxazol-5-yl)methoxy]-1,2,3,4-tetrahydroisoquinolin-2-yl}propyl]pyrimidine-4-carboxamide], the IC50 in assay [1] was 50 to 500 nM; in assay [2], 50 to 500 nM; in assay [3] (read-out: No Co-factor IC50), at least 5000 nM. The “SAM/MTA Ratio” value in assay [1] (setting [5]) is “A (a Ki ratio greater than or equal to 10 fold between the Ki in the presence of SAM and the Ki in the presence of MTA)”.
For the compound `Cc1c(OCc2cnco2)cc(F)c2c1CCN(C[C@H](O)CNC(=O)c1ccnc(NC3CCC3)c1)C2` [Compound 332, 2-(cyclobutylamino)-N-[(2R)-3-[8-fluoro-5-methyl-6-(oxazol-5-ylmethoxy)-3,4-dihydro-1H-isoquinolin-2-yl]-2-hydroxy-propyl]pyridine-4-carboxamide], the IC50 is 500 to 5000 nM in assay [1], 500 to 5000 nM in assay [2] and at least 5000 nM in assay [3] (read-out: No Co-factor IC50). Further, the “SAM/MTA Ratio” value in assay [1] (setting [5]) was “A (a Ki ratio greater than or equal to 10 fold between the Ki in the presence of SAM and the Ki in the presence of MTA)”.
Take `COCCN(C)c1cc(NC2CCN(C(C)=O)CC2)cc(C(=O)NC[C@H](O)CN2CCc3cc(OCc4ocnc4C)ccc3C2)c1` (single isomer, unassigned) [Compound 649]: the 50% inhibitory concentration (IC50) was 500 to 5000 nM in assay [1], 500 to 5000 nM in assay [2] and at least 5000 nM in assay [3] (read-out: No Co-factor IC50). Besides, the “SAM/MTA Ratio” value in assay [1] (setting [5]) is “A (a Ki ratio greater than or equal to 10 fold between the Ki in the presence of SAM and the Ki in the presence of MTA)”.
With `Cc1c(OCc2cnco2)ccc2c1CCN(C[C@@H](O)CNC(=O)c1cc(NC3CN(C(=O)C4CCC4)C3)ncn1)C2` [Compound 585, 6-[(1-cyclobutanecarbonylazetidin-3-yl)amino]-N-[(2S)-2-hydroxy-3-{5-methyl-6-[(1,3-oxazol-5-yl)methoxy]-1,2,3,4-tetrahydroisoquinolin-2-yl}propyl]pyrimidine-4-carboxamide], the IC50 in assay [1] was 50 to 500 nM; in assay [2], 50 to 500 nM; in assay [3], at least 5000 nM. Besides, the “SAM/MTA Ratio” value in assay [1] (setting [4]) is “A (a Ki ratio greater than or equal to 10 fold between the Ki in the presence of SAM and the Ki in the presence of MTA)”.
For `CCCC(=O)N1CC(Nc2cc(C(=O)NC[C@H](O)CN3CCc4cc(OCc5ocnc5C)c(F)cc4C3)ccn2)C1` [Compound 643, 2-[(1-butanoylazetidin-3-yl)amino]-N-[(2S)-3-[7-fluoro-6-[(4-methyloxazol-5-yl)methoxy]-3,4-dihydro-1H-isoquinolin-2-yl]-2-hydroxy-propyl]pyridine-4-carboxamide], the IC50 lay in the range of 50 to 500 nM in assay [1], 50 to 500 nM in assay [2] and 500 to 5000 nM in assay [3] (read-out: No Co-factor IC50). For the same compound, the “SAM/MTA Ratio” value in assay [1] (setting [5]) was “A (a Ki ratio greater than or equal to 10 fold between the Ki in the presence of SAM and the Ki in the presence of MTA)”.
